Measurements published in patent US20230103444A1 (The Regents of the University of Colorado, a Body Corporate, priority 2020, published 2023).
Read-outs that look alike come from different tables or passages of the source.

Tests used:
[1] = Human microsomal stability; format: in vitro ADME; settings: human microsomes, Table 6, read-out: Microsomal stability Human t1/2
[2] = Mouse liver microsome stability; settings: CD-1, mouse, liver microsomes
Protocol: Microsome stability. CD-1 mouse microsomes were commercially purchased and the reactions were performed as previously described. […] The master mix was pre-incubated at 37° C. for 5 min, then 1 mM NADPH was added to start the microsomal activity reaction and maintained at 37° C. throughout the time course. Reactions were stopped at 0, 5, 15, 30, 45, and 60 min by adding 200 μL acetonitrile and analyzed by mass spectrometry. The appropriate microsome controls were also performed in the same reaction conditions.

[3] = system: SW620 tumor organoids; test: Tumor organoid cytotoxicity (CellTiter-Glo 3D); settings: Homo sapiens
[4] = system: HCT116 tumor organoids; test: Tumor organoid cytotoxicity (CellTiter-Glo 3D); format: cell-based, human; settings: Homo sapiens
Protocol: (§1) Cell based cytotoxicity dose response and combination studies. […] Plates were then incubated for 3 days before treatment.
Cell Line Tumor Organoid Culture.
Tumor Organoid Cytotoxicity.

[5] = target: T1, cat-CHD1L ATPase (Homo sapiens, UniProt Q86WJ1); test: CHD1L ATPase assay with recombinant catalytic domain (cat-CHD1L); format: biochemical; settings: for IC50: Table 6, read-out: cat-CHD1L inhibition IC50
T1 construct: inferred from Ni-NTA / imidazole purification; made in house; host or cells: E. coli Rosetta 2 (DE3) pLysS; constructs were a gift from Helena Berglund, Karolinska Institute
T1 sequence (Q86WJ1 16-611 limits assumed): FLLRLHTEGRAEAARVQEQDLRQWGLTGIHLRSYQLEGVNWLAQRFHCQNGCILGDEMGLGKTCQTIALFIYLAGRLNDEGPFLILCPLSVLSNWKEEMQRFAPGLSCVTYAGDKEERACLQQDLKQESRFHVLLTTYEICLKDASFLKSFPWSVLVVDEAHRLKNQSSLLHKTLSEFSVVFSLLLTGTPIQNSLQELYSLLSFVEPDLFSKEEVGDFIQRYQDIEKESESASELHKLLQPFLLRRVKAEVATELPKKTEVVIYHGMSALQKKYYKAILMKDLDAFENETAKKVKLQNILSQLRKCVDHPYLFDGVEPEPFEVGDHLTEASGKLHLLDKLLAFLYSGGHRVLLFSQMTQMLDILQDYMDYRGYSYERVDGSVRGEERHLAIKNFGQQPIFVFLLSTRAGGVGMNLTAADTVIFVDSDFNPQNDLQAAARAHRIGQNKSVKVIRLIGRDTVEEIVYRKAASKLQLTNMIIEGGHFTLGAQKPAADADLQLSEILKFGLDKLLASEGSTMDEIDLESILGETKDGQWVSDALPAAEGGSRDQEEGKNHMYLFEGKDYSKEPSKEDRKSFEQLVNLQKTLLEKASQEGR
Protocol: All reactions were carried out using low volume non-binding surface 384-well plates (Corning Inc., Corning N.Y.). cat-CHD1L or fl-CHD1L (100 nM) and 200 nM c-Myc DNA or mononucelosome (Active Motif, Carlsbad, Calif.) were added to a buffer containing 50 mM Tris pH 7.5, 50 mM NaCl, 1 mM DTT, 5% glycerol, and the reaction was initiated by the addition of 10 μM ATP (New England Biolabs, Ipswich, Mass.) to a total volume of 10 μL and incubated at 37° C. for 1 h. ATPase activity was assayed by adding 500 nM of Phosphate Sensor (Life Technologies, Carlsbad, Calif.), containing labeled phosphate-binding protein, specifically labeled with the fluorophore MDCC, and measuring excitation (430 nm) and emission (450 nm) immediately on an EnVision® plate reader (PerkinElmer, Hopkinton, Mass.). An inorganic phosphate standard curve was used to convert the fluorescence to [Pi], and enzyme kinetics were determined using Prism8 (GraphPad Software, San Diego, Calif.).
Assay composition was the same as described above using cat-CHD1L, except that the reaction mixture volume was modified to accommodate addition of drug or DMSO. Using a Janus® liquid handler (PerkinElmer, Hopkinton, Mass.), a selected amount of compounds dissolved in 100% DMSO were mixed with 50 mM Tris pH 7.5, 50 mM NaCl, 1 mM DTT, 5% glycerol buffer to 200 μM in 10% DMSO. […] The negative control used was 1% DMSO and 10 mM EDTA was used as a positive control. Reactions were initiated with the addition of 10 μM ATP and incubated at 37° C. for 1 h. ATPase activity was measured by fluorescence by adding 500 nM Phosphate Sensor. cat-CHD1L was screened against a 20,000-compound diversity set from Life Chemicals (Woodbridge, Conn.) and a Kinase Inhibitor library from Selleck Chemicals (Houston, Tex.).
CHD1L Enzyme ATPase Assay. […] All reactions were carried out using low volume nonbinding surface 384-well plates (Corning Inc., Corning, N.Y.). […] The reaction was initiated by the addition of 10 μmol/L ATP (New England Biolabs, Ipswich, Mass.) to a total volume of 10 μL and incubated at 37° C. for 1 hour. ATPase activity was measured by adding 500 nmol/L of Phosphate Sensor (ThermoFisher, Waltham, Mass.) measuring excitation (430 nm) and emission (450 nm) immediately on an Envision plate reader (PerkinElmer, Waltham, Mass.). Background signal was determined by using all assay components excluding the enzyme.

[6] = system: SW620 tumor organoids; test: Synergy studies with SN38 (LOEWE synergy scores); format: cell-based, human; settings: killing SW620 tumor organoids
Protocol: as §1
(e.g., synergy score 20 corresponds to 20% of response beyond expectation). According to our experience, the synergy scores near 0 gives limited confidence on synergy or antagonism.
When the synergy score is: • Less than −10: the interaction between two drugs is likely to be antagonism; • From −10 to 10: the interaction between two drugs is likely to be additivity; • Larger than 10: the interaction between two drugs is likely to be synergy.

[7] = pH 7.4, Microsomal stability Mouse t1/2 (min), Table 6
[8] = SW-620, 72 h, read-out: 3 D Cytotoxicity 72 hr IC50 (μM) SW620
[9] = SW-620, read-out: IC50 of cytotoxicity in SW620 cells
[10] = SW-620, read-out: Tumor Organoid Cytotoxicity IC50 (μM) SW620
[11] = HCT-116, 72 h, Table 6, read-out: 3 D Cytotoxicity 72 hr IC50 (μM) HCT116
[12] = HCT-116, single agent, Table 4A, read-out: Tumor Organoid Cytotoxicity IC50 (μM) HCT116
[13] = pH 7.4, In Vitro Half-Life (Min), second series, different liver microsome preparation

| IC50 [5] | CHD1L enzyme inhibition, in words ([5]; recombinant cat-CHD1L) | SMILES | half-life [1] | half-life at 10 μM [2, 7] | IC50 [3, 8] | IC50 [3, 9] | IC50 [3, 10] | IC50 [4, 11] | IC50 [4, 12] | synergism with irinotecan (and SN38), in words [6] | half-life at 10 μM [2, 13] |
| --- | --- | --- | --- | --- | --- | --- | --- | --- | --- | --- | --- |
| – | – | Cc1cc(Nc2ccc(NC(=O)Cc3c(C)[nH]c4ccccc34)cc2)nc(N2CCCC2)n1 [Compound 6.21, 2-(2-methyl-1H-indol-3-yl)-N-(4-((6-methyl-2-(pyrrolidin-1-yl)pyrimidin-4-yl)amino)phenyl)acetamide] | 0.73 h | 0.796 h | 1.7 µM | < 10 µM | 1.6 µM | – | – | – | – |
| – | – | Cc1cc(Nc2ccc(NC(=O)Cc3c[nH]c4cc(Cl)ccc34)cc2)nc(N2CCCC2)n1 [Compound 6.18, 2-(6-chloro-1H-indol-3-yl)-N-(4-((6-methyl-2-(pyrrolidin-1-yl)pyrimidin-4-yl)amino)phenyl)acetamide] | 1.47 h | 2.35 h | 1.5 µM | < 10 µM | 1.4 µM | 3 µM | 2.95 µM | – | – |
| 0.5 µM | – | Cc1cc(N2CCCC2)nc(NCc2ccc(NC(=O)Cc3cc(Br)cs3)cc2)n1 [Compound 6.41] | 2.86 h | 1.03 h | 13.5 µM | – | – | 21.3 µM | – | – | – |
| 0.3 µM | good enzyme inhibition | Cc1cc(NCc2ccc(NC(=O)Cc3cc(Br)cs3)cc2)nc(N2CCCC2)n1 [Compound 6.33] | 0.637 h | 1.27 h | 4 µM | < 10 µM | – | 11.6 µM | – | – | – |
| – | – | Cc1cc(Nc2ccc(NC(=O)c3c[nH]c4ncccc34)cc2)nc(N2CCCC2)n1 [Compound 6.9, N-(4-((6-methyl-2-(pyrrolidin-1-yl)pyrimidin-4-yl)amino)phenyl)-1H-pyrrolo[2,3-b]pyridine-3-carboxamide] | – | – | 8.3 µM | – | 8.1 µM | 19.7 µM | 19.6 µM | synergism | 4.92 h |
| > 20 µM | – | Cc1cc(Nc2ccc(NC(=O)Cc3ccco3)cc2)nc(N2CCCC2)n1 [Compound 6.39] | 1.48 h | 1.17 h | 14.2 µM | – | – | 10.8 µM | – | – | – |
| – | – | Cc1cc(Oc2ccc(NC(=O)Cc3cccs3)cc2)nc(Cl)n1 [Compound 6.12, N-(4-((2-chloro-6-methylpyrimidin-4-yl)oxy)phenyl)-2-(thiophen-2-yl)acetamide] | – | – | > 20 µM | – | > 20 µM | > 40 µM | > 30 µM | – | 0.155 h |
| – | – | Cc1nc(N2CCCC2)nc(Nc2ccc(NC(=O)Cc3cccs3)cc2)c1F [Compound 6.1, N-(4-((5-fluoro-6-methyl-2-(pyrrolidin-1-yl)pyrimidin-4-yl)amino)phenyl)-2-(thiophen-2-yl)acetamide] | – | – | > 40 µM | – | > 40 µM | > 40 µM | > 30 µM | – | 0.582 h |
| – | – | Cc1cc(Nc2ccc(NC(=O)Cc3cccc4ccccc34)cc2)nc(N2CCCC2)n1 [Compound 6.16, N-(4-((6-methyl-2-(pyrrolidin-1-yl)pyrimidin-4-yl)amino)phenyl)-2-(naphthalen-1-yl)acetamide] | 0.992 h | 0.925 h | – | < 10 µM | – | 2.4 µM | 2.43 µM | – | – |
